In patent US11413278B2, “Compounds and methods for promoting stress resistance” (priority 2015, dated 2022):
Where two headings read alike, the source gives them in different places.

Columns and labels:
WI-38 cells [1] = test: Propidium iodide (PI) cell-death imaging upon H2O2 stress; type: cell-based, human; details: for Assay 7: H2O2-resistant, at 10 uM, validated by propidium iodide (PI) cell-death imaging: w/H2O2, 3 hrs/4 hrs/5 hrs, YES/NO; for cytotoxicity at 10 µM: Homo sapiens, WI-38
WI-38 cells [2] = test: CdCl2 (cadmium) resistance assay; type: cell-based, human; details: for fold induction at 10 µM: Homo sapiens, 12 h, normalized ATP measurement
Procedure, shortened: (§1)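 Resistance to CdCl2 or MMS stress (12 h exposure) was scored in WI-38 fibroblasts pretreated with compound at 0.25–20 μM final, five doses, technical triplicates. MMS plates had compound added 24 h before MMS, after a shift to serum-free DMEM+2% BSA. Significance came from a global variance t-test over two independent runs.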

WI-38 cells [3] = test: MMS resistance assay; type: cell-based, human; details: for Triple resistant: H2O2, CdCl2 and MMS; for fold induction at 10 µM: Homo sapiens, 12 h, normalized ATP measurement
Procedure, shortened: as §1

[4] = test system: human dermal fibroblast (HDF) primary cells; test: H2O2-resistance in primary human dermal fibroblasts; type: cell-based; details: for fold induction at 10 µM: Homo sapiens; for Assay 6: H2O2-resistant, at 10 uM, human dermal fibroblast (HDF) primary cells: YES/NO
C. elegans = type: in vivo, Caenorhabditis elegans; details: in vivo
Procedure, shortened: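 Survival under oxidative stress: 500 μM H2O2 (final) was added to day-4 adults kept in liquid with compounds, FUdR present, 4 wells per molecule and 0.2% DMSO controls, with daily scoring of viability.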

WI-38 cells [5] = test: Long-term effects on cell viability (5 days, ATP; morphology, PI imaging); type: cell-based; details: 10 μM; for Luminescence signal for ATP measurement, day-1 Average / Luminescence signal for ATP measurement, day-2 Average / Luminescence signal for ATP measurement, day-3 Average / Luminescence signal for ATP measurement, day-4 Average / Luminescence signal for ATP measurement, day-5 Average: n = 6; for viability at 10 µM: Homo sapiens, WI-38, 120 h, DMSO ctrl = 100.0%, read-out: ATP luminescence by day-5 normalized; for Luminescence signal for ATP measurement, day-5 Average / viability at 10 µM: day-5; for O = Potential toxicity / Q = Potential toxicity: human, 5 days;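 on Luminescence signal for ATP measurement, day-2 Average: compounds at 10 µM with ATP read daily over 5 days of treatment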;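 on Luminescence signal for ATP measurement, day-3 Average: compounds at 10 µM with ATP read daily over 5 days of treatment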;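 on Luminescence signal for ATP measurement, day-4 Average: compounds at 10 µM with ATP read daily over 5 days of treatment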;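 on Luminescence signal for ATP measurement, day-5 Average: compounds at 10 µM with ATP read daily over 5 days of treatment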
[6] = Summary score for characterization of 38 core set hits; details: for D = Triple resistant: 2-point score, multiplex resistance (cadmium, MMS, H2O2); for S = Sum of Negative scores: human; for C = H2O2- & Cd-resistant: score, resistance to both H2O2 and cadmium
Procedure, shortened: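 Each score sums results of individual assays on H2O2-resistance screen hits. Nematode lifespan assays were run in 4 to 6 independent trials and scored up to 2. Key phenotypes such as multiplex resistance, FOXO3/NRF2 activation and mTOR down-regulation were weighted at 2 points, with a deduction for human-cell toxicity.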

[7] = H2O2 3 hrs, 10 uM, n = 6, negative control 5.44% ± 0.79%, read-out: Percentage of propidium iodide-positive dead cells (under H2O2 stress treatment), 3 hrs
[8] = pre-treatment at 10 uM, 3.5 hours of H2O2, DMSO control 27.4% ± 6.5%, */**/*** = reduced by one/two/three standard deviations, read-out: Percentage of propidium iodide-positive dead cells (under H2O2 stress treatment), at 10 uM
[9] = Exp. 1, WI-38 cells, read-out: Exp. 1, under Cd2Cl2 stress treatment, at 10 uM (fold change)
[10] = Exp. 2, WI-38 cells, read-out: Exp. 2, under Cd2Cl2 stress treatment, at 10 uM (fold change)
[11] = score in summary of 38 core set hits
[12] = Exp. 1, WI-38 cells, read-out: Exp. 1, under MMS stress treatment, at 10 uM (fold change)
[13] = Exp. 2, WI-38 cells, read-out: Exp. 2, under MMS stress treatment, at 10 uM (fold change)
[14] = Experiment 1, HDF cells, read-out: Experiment 1, HDF cells (under H2O2 stress treatment), at 10 uM (fold change)
[15] = Experiment 2, HDF cells, read-out: Experiment 2, HDF cells (under H2O2 stress treatment), at 10 uM (fold change)
[16] = Batch 1, day-0 luminescence = 320956 ± 24708
[17] = Batch 2, day-0 luminescence = 229312 ± 17487

Cc1cc(N)n(-c2ccccc2C(=O)O)n1 [Gr-6A]
Assay 7: H2O2-resistant, at 10 uM, validated by propidium iodide (PI) cell-death imaging (WI-38 cells [1]; 10 uM): YES | cytotoxicity at 10 µM (WI-38 cells [1]; [7]): 4.38% | cytotoxicity at 10 µM (WI-38 cells [1]; [8]): 15.6% | CdCl2-resistant (WI-38 cells [2]): YES | H2O2- & CdCl2-resistant (WI-38 cells [2]): YES | fold induction at 10 µM (WI-38 cells [2]; [9]): 2.46 | fold induction at 10 µM (WI-38 cells [2]; [10]): 2.36 | CdCl2-resistant (WI-38 cells [2]; WI-38 cells, 10 μM): YES | H2O2- & CdCl2-resistant (WI-38 cells [2]; WI-38 cells, 10 μM, both stressors): YES | Assay 4: H2O2- & Cd-resistant (WI-38 cells [2]; YES/NO): YES | Assay 2: Cadmium-resistant (WI-38 cells [2]; YES/NO, * indicates partial): YES | A = Cadmium resistant (WI-38 cells [2]; [11]): 1 | A = Cadmium resistant (WI-38 cells [2]; summary score): 1 | C = H2O2- & Cd-resistant (WI-38 cells [2]; summary score): 1 | MMS-resistant (WI-38 cells [3]): YES | Multiplex resistance to cadmium, MMS and H2O2 (WI-38 cells [3]; 0.25 μM to 20 μM, repurchased molecules): reproducibly conferred multiplex resistance | Triple resistant (WI-38 cells [3]): YES | fold induction at 10 µM (WI-38 cells [3]; [12]): 2.2 | fold induction at 10 µM (WI-38 cells [3]; [13]): 7.2 | MMS-resistant (WI-38 cells [3]; WI-38 cells, 10 μM): YES | Triple resistant (WI-38 cells [3]; WI-38 cells, 10 μM): YES | Assay 3: MMS-resistant (WI-38 cells [3]; YES/NO, * indicates partial): YES | Assay 5: Triple resistant (WI-38 cells [3]; YES/NO, H2O2, cadmium and MMS): YES | B = MMS resistant (WI-38 cells [3]; [11]): 1 | B = MMS resistant (WI-38 cells [3]; summary score): 1 | D = Triple resistant (WI-38 cells [3]; summary score): 2 | fold induction at 10 µM [4, 14]: 10.3 | fold induction at 10 µM [4, 15]: 39.3 | Assay 6: H2O2-resistant, at 10 uM, human dermal fibroblast (HDF) primary cells [4]: YES | H2O2-resistance assay, 1st experiment (C. elegans): YES; | L = H2O2-resistance in worms (C. elegans): 0 | N = H2O2-resistance in woms (C. elegans): 0 | Luminescence signal for ATP measurement, day-1 Average (WI-38 cells [5]; [16]): 581273 | Luminescence signal for ATP measurement, day-2 Average (WI-38 cells [5]; [16]): 717601 | Luminescence signal for ATP measurement, day-3 Average (WI-38 cells [5]; [16]): 804970 | Luminescence signal for ATP measurement, day-4 Average (WI-38 cells [5]; [16]): 1007061 | Luminescence signal for ATP measurement, day-5 Average (WI-38 cells [5]; [16]): 986943 | viability at 10 µM (WI-38 cells [5]; Batch 1): 96.1% | O = Potential toxicity (WI-38 cells [5]): 0 | Q = Potential toxicity (WI-38 cells [5]): 0 | D = Triple resistant [6]: 2 | S = Sum of Negative scores [6]: 0 | C = H2O2- & Cd-resistant [6]: 1

Cc1ccc(S(=O)(=O)Nc2cccc3cccnc23)cc1 [Gr-3B]
Assay 7: H2O2-resistant, at 10 uM, validated by propidium iodide (PI) cell-death imaging (WI-38 cells [1]; 10 uM): YES | cytotoxicity at 10 µM (WI-38 cells [1]; [7]): 4.63% | cytotoxicity at 10 µM (WI-38 cells [1]; [8]): 2.6% | fold induction at 10 µM (WI-38 cells [2]; [9]): 2.1 | fold induction at 10 µM (WI-38 cells [2]; [10]): 2.88 | A = Cadmium resistant (WI-38 cells [2]; [11]): 0 | A = Cadmium resistant (WI-38 cells [2]; summary score): 0 | C = H2O2- & Cd-resistant (WI-38 cells [2]; summary score): 0 | fold induction at 10 µM (WI-38 cells [3]; [12]): 1.72 | fold induction at 10 µM (WI-38 cells [3]; [13]): 1.33 | B = MMS resistant (WI-38 cells [3]; [11]): 0 | B = MMS resistant (WI-38 cells [3]; summary score): 0 | D = Triple resistant (WI-38 cells [3]; summary score): 0 | fold induction at 10 µM [4, 14]: 3.1 | fold induction at 10 µM [4, 15]: 1.59 | Assay 6: H2O2-resistant, at 10 uM, human dermal fibroblast (HDF) primary cells [4]: YES | H2O2-resistance assay, 1st experiment (C. elegans): YES; | L = H2O2-resistance in worms (C. elegans): 0 | N = H2O2-resistance in woms (C. elegans): 0 | Luminescence signal for ATP measurement, day-1 Average (WI-38 cells [5]; [17]): 184710 | Luminescence signal for ATP measurement, day-2 Average (WI-38 cells [5]; [17]): 110226 | Luminescence signal for ATP measurement, day-3 Average (WI-38 cells [5]; [17]): 109008 | Luminescence signal for ATP measurement, day-4 Average (WI-38 cells [5]; [17]): 52193 | Luminescence signal for ATP measurement, day-5 Average (WI-38 cells [5]; [17]): 63138 | viability at 10 µM (WI-38 cells [5]; Batch 2): 11.4% | O = Potential toxicity (WI-38 cells [5]): 0 | Q = Potential toxicity (WI-38 cells [5]): 1 | D = Triple resistant [6]: 0 | S = Sum of Negative scores [6]: 0 | C = H2O2- & Cd-resistant [6]: 0
